Each structure is given as a SMILES string. Residues, ends and D or L forms follow the SMILES beside them. *: point of attachment. OiPr = CC(C)O*

The record followed here is a melting point compilation (Tetko et al.; mined from patent text by program, amines drawn as free bases though some values may be those of a salt).

With `OCC1C=CC(n2cnc3cc(Cl)c(Cl)cc32)C1` (stereo not given), the melting point lay within 166 to 169 °C.

As to `O=C(OCc1ccccc1)C1CSC2C(N=Cc3ccc([N+](=O)[O-])cc3)C(=O)N12` (stereo not given), the melting point lay within 95 to 96 °C.

Compound `Cc1ccc(O)cc1N=C(c1ccccc1)c1ccccc1` had a melting point of 106 to 108 °C.

In the case of `Cc1noc(NC(=O)N2CCC(c3nc(-c4ccc(F)cc4)cs3)CC2)c1C`, the melting point was in the range of 170 to 171 °C.

In the case of `CC1(C)CC(c2ccccn2)c2ccccc2O1` (stereo not given), the melting point was in the range of 99 to 101 °C.

`O=[N+]([O-])c1ccc(OCc2ccccc2)c(C(F)(F)F)c1` registered a melting point of 112 to 114 °C.

Consider `COc1ccc(CS[C@H]2C[C@@H](C(=O)O)N(C(=O)OCc3ccc([N+](=O)[O-])cc3)C2)cc1`, for which the melting point fell in the range of 96 to 98 °C.

On to `Cc1nc2c(N)nc3c(c2n1CC(C)(C)OCCS(C)(=O)=O)CCCC3`, for which the melting point lay in the range of 226 to 229 °C.

Compound `O=C1N(O)CC12CCOc1cc(Cl)c(Cl)cc12` (stereo not given) returned a melting point of 157 to 158 °C.

Take `COc1ccc2cccc(C(CO)CNC(=O)C3CC3)c2c1` (stereo not given): the melting point lay in the range of 153 to 154 °C.

As to `NC1=NC(=O)N(CC2CC2)CC1Br` (stereo not given), the melting point lay in the range of 139 to 143 °C.

Compound `O=C(Nc1cccc(O)c1)C(CS)C(F)(F)F` (stereo not given) registered a melting point of 147 to 151 °C.

For the compound `O=C(Nc1ccc(F)nc1)N1CCN(c2ccnc(-c3cccc(F)c3F)n2)CC1`, the melting point fell in the range of 192 to 193 °C.

With `CCCc1c2c(c(C(C)(C)C)c(OC(C)=O)c1C(C)(C)C)CC(C)(C)O2`, the melting point was 106 °C.

As to `Cn1cc(-c2ccc(O)cc2)c(=O)c(-c2cccc(C(F)(F)F)c2)c1`, the melting point fell in the range of 162 to 163 °C.

In turn, `CNC1C(O)C(OC2C(N)CC(N)C(OC3OC(C(C)O)C(O)C(O)C3N)C2O)OCC1(C)O` (stereo not given) showed a melting point of 65 °C.

Take `CCCCCC1=NNC(C)=C(C(=O)NN)C1c1ccccc1` (stereo not given): the melting point is 161 °C.

As for `N#Cc1ccc(CBr)c2ccccc12`, the melting point is 131 to 133 °C.

Turning to `CCOC(=O)/C=C(C)/C=C/C=C(\C)C1=Cc2cc(C(C)(C)C)cc(C(C)(C)C)c2OC1`, the melting point was in the range of 130 to 131 °C.

On to `Cc1ccc(-c2ccc(S(N)(=O)=O)cc2)n1-c1ccc(F)cc1`, for which the melting point is 147 to 148 °C.

`CC(=O)Nc1cc2c(cc1Oc1ccc(F)cc1F)CCC2=O` came in with a melting point of 210 °C.

On to `Nc1ncc(-c2ccc(=O)[nH]n2)c(-c2ccc(F)c(F)c2)n1`, for which the melting point was 307 °C.

Compound `O=C(NO)c1ccc2c(c1)CN(C(=O)c1cc3ccccc3cn1)C2` had a melting point of 208 to 210 °C.

In turn, `CC(CC1(c2ccc(Cl)cc2)CCC1)NC=O` (stereo not given) displayed a melting point of 71 to 73 °C.

Regarding `CC(C)OC(=O)C(CO)NC(=O)C(CC(=O)O)NC(=O)C(C)N` (stereo not drawn) (H-Ala-Asp-Ser-OiPr; configuration not given here), the melting point fell in the range of 222 to 234 °C.

With `COc1ccccc1-n1c(=O)[nH]c2c(C(N)=O)nc(-c3ccc(C#N)cc3)nc21`, the melting point was in the range of 335 to 338 °C.

In the case of `Cc1ccc(S(=O)(=O)OCCC2COc3cc(Cl)c(Cl)cc3O2)cc1` (stereo not given), the melting point was in the range of 135 to 138 °C.

Turning to `Cc1c(Cc2ccccc2)c(=O)[nH]c2cc(O)cc(O)c12`, the melting point lay in the range of 307 to 312 °C.

On to `CS(=O)(=O)c1ccc(-c2sc(-c3ccccc3Cl)nc2-c2ccc(F)cc2)cc1`, for which the melting point was in the range of 133 to 134 °C.

On to `CCN(CC(OC)OC)C(=O)Nc1ccc(C(O)(C(F)(F)F)C(F)(F)F)cc1`, for which the melting point lay within 138 to 140 °C.

`CC1CCc2c(Cl)c(F)cc3c(=O)c(C(=O)O)cn1c23` (stereo not given) displayed a melting point of 297 to 298 °C.

Take `CC(=O)N1CCC(CCCC(=O)c2ccc3c(c2)CCNCC3)CC1`: the melting point lay within 90 to 91 °C.

`O=C(O)C1CC1(C(=O)O)c1ccc([N+](=O)[O-])cc1` (stereo not given) displayed a melting point of 138 to 144 °C.

Take `CCOCc1nc2c(N)nc3cc(-c4cccnc4)ccc3c2n1C[C@@H]1COC(C)(C)O1`: the melting point lay in the range of 155 to 156 °C.

Turning to `O=C(SCCC(=O)N1C(C(=O)NO)CSC1c1ccccc1O)c1ccccc1` (stereo not given), the melting point lay in the range of 105 to 110 °C.

Compound `COCOc1ccccc1-c1cc(-c2cccc(C(=O)OC)c2)c(C#N)c(NC(=O)c2cccs2)n1` yielded a melting point of 159 to 160 °C.

`COc1cc(Nc2c(C#N)cnc3cc(-c4ncccc4CN4CCOCC4)ccc23)c(Cl)cc1Cl` registered a melting point of 151 to 154 °C.

In turn, `CC(C)(C)OC(=O)Nc1cc(OC(C)(C)C)c(-c2ccccc2F)cc1N` registered a melting point of 130 °C.

In turn, `CCCOc1ccc([N+](=O)[O-])cc1C=O` returned a melting point of 51 to 52 °C.

For `CCSC(C)(C)C(=O)CC(=O)Nc1cc(NC(=O)CCCOc2ccc(C(C)(C)CC)cc2C(C)(C)CC)ccc1Cl`, the melting point is 121 to 122 °C.

In turn, `CC1CCc2c(N3CCCCC3)c(F)cc3c(=O)c(C(=O)O)cn1c23` (stereo not given) gave a melting point of 258 to 261 °C.

`O=C(O)C=Cc1cn(-c2ccccc2)nc1-c1ccc(Cl)cc1` had a melting point of 227 to 228 °C.

In turn, `O=C1CCC(N2Cc3c(OCc4cc(Cl)ccc4Cl)cccc3C2=O)C(=O)N1` (stereo not given) showed a melting point of 256 to 258 °C.

`CCOC(=O)CCc1cc(C(=O)c2cccc(C(=O)OCC)c2)ccc1/C=C\CCCCO` returned a melting point of 48 to 50 °C.

`CCOC(=O)COc1cc2c(c(Cl)c1Cl)C(=O)C(c1ccc(Cl)cc1)C2` (stereo not given) gave a melting point of 160 °C.

In turn, `O=C(O)Cc1ccc(Oc2ccc(CC3SC(=O)NC3=O)cc2)cc1` (stereo not given) registered a melting point of 166 °C.

Compound `O=C(CNC(=O)c1ccc(F)cc1)c1ccoc1` showed a melting point of 142 to 143 °C.

In turn, `BrCc1ccc(-c2ccc3c(c2)OCO3)cc1` returned a melting point of 78 to 81 °C.

`CCOC(=O)C(C)(C)NC(=O)c1ccc(S(=O)(=O)N2C(=O)C(NC)(c3ccccc3Cl)c3cc(Cl)ccc32)c(OC)c1` (stereo not given) showed a melting point of 141 °C.

`CC1(C)CCC(=O)Nc2ccc(Nc3ncc(Cl)c(Nc4ccccc4-c4nccs4)n3)cc21` had a melting point of 224 °C.

As for `COC(=O)CCOc1ccc(C#N)cc1`, the melting point is 51 °C.

`CN(C)CCCOc1ccccc1CC(=O)O`: the melting point came to 98 °C.

Regarding `Cc1[nH]cnc1CSCCNC1=C([N+](=O)[O-])CCN1`, the melting point is 208 °C.

`CC(C)(O)c1csc(S(N)(=O)=O)c1` had a melting point of 125 to 127 °C.

As for `CC1(C)C=Cc2c(-c3[nH]c4cn[nH]c(=O)c4c3Cl)ccc(OC(F)F)c2O1`, the melting point lay in the range of 226 to 234 °C.

The compound `C#CCOc1cc(-n2c(OC)nc(C(F)(F)F)cc2=O)c(F)cc1Br` returned a melting point of 136 to 138 °C.

Take `COc1cccc(-c2ccc(NC(=O)OC(C)(C)C)c([N+](=O)[O-])c2)c1`: the melting point is 104 to 107 °C.

Turning to `Nc1cc(Cl)nc(SC/C=C/C(=O)N2CCCC2)n1`, the melting point lay within 178 to 180 °C.

`COc1cc(COc2cc(CO)n(-c3ccccc3)n2)ccc1OCc1nc(-c2ccco2)oc1C` came in with a melting point of 106 to 107 °C.

For the compound `COc1ccc(N=Nc2ccc(O)c(C(N)=O)c2)cc1`, the melting point lay within 231 to 233 °C.

`Nc1ccc2ccc(Cl)cc2n1`: the melting point stood at 175 °C.

The compound `C=CC(C)(C)C(=O)C(Oc1ccc(Cl)cc1)n1cnnc1` (stereo not given) returned a melting point of 124 to 126 °C.

`CC#Cc1ccc(NC(=O)c2ccccc2NCc2ccc(=O)[nH]c2)cc1C(F)(F)F` displayed a melting point of 208 to 212 °C.

As to `CN(C1CCN(Cc2cccs2)CC1)S(=O)(=O)c1ccc(Nc2nccc(Nc3ccc(F)cc3)n2)cc1`, the melting point fell in the range of 175 to 176 °C.

`CC(C)c1ccc2c(c1)CCC1C(C)(C(=O)O)CCCC21C` (stereo not given) showed a melting point of 168 to 170 °C.

For the compound `CCN(C(=O)Cc1c(F)cccc1F)C(c1cnccc1C(F)(F)F)C(C)C` (stereo not given), the melting point amounted to 122 °C.

`CN(NC(=O)c1ccccc1C(=O)O)C(=S)Nc1ccccc1` gave a melting point of 155 to 156 °C.

Compound `Cc1noc(NS(=O)(=O)c2ccccc2-c2ccc(-c3ncco3)cc2CN(C)C(=O)c2ccc(Cl)cc2Cl)c1C` returned a melting point of 134 to 142 °C.

`CC(C)(C)C1=NN(c2ccc(C(=O)O)cc2)C(c2ccc(O)cc2)C1` (stereo not given) had a melting point of 259 °C.

`CCCOc1ccc(NC(C)=O)cc1C1=NC(=O)C2=NC=NC2=N1` returned a melting point of 320 to 323 °C.

As for `C(=C1CCNCC1)c1ccc(C2=NCCO2)cc1`, the melting point was determined as 110 °C.

`CCCCCCCCCCSC(=O)CS(=O)(=O)Nc1c(C(C)C)cccc1C(C)C` registered a melting point of 57 to 59 °C.

`Cc1cccc(-n2c(-c3sc(Nc4ccc(Cl)cc4)nc3C)nc3ccccc3c2=O)c1` registered a melting point of 236 to 238 °C.

Compound `O=C(c1cccs1)c1cnn2c(-c3cccc(-c4nnn(CCN5CCCCC5)n4)c3)ccnc12` registered a melting point of 117 °C.

`OCCN(CCc1ccccc1)C(=S)NCCCc1ccncc1` came in with a melting point of 106 to 107 °C.

For the compound `CC1(C)C(=O)N(c2ccc([N+](=O)[O-])c(C(F)(F)F)c2)C(=O)N1CCCCCN1C(=O)N(c2ccc([N+](=O)[O-])c(C(F)(F)F)c2)C(=O)C1(C)C`, the melting point is 163 to 164 °C.

In the case of `O=C(Nc1ccccn1)c1cnc2c(C(F)(F)F)cccc2c1O`, the melting point lay in the range of 335 to 336 °C.

`CC1CC(c2cc3c(F)cccc3s2)CCN1` (stereo not given) showed a melting point of 63 to 65 °C.

Take `CCOC(=O)C(C)(C)Oc1ccc(CCNC(=O)C(C)(C)Oc2cccc(OC)c2)cc1`: the melting point lay within 68 to 69 °C.

Turning to `NCc1ccn(-c2cc3c(cc2[N+](=O)[O-])[nH]c(=O)c(=O)n3C2CCCCC2)c1`, the melting point is over 300 °C.

`CCNC(=O)Nc1scc(-c2ccccc2)c1C(=O)OCC` displayed a melting point of 109 to 112 °C.

In the case of `O=C(Nc1ccc2ccc(Cl)nc2n1)c1ccc(Cl)c(Cl)c1`, the melting point was 230 °C.

`COc1cc(C=CC(=O)OC2CC3CC(OC(=O)Cc4cccc(O)c4)CC2N3C)cc(OC)c1OC` (stereo not given) had a melting point of 53 to 57 °C.

`C#CC[C@H](c1nc2cccnc2c(=O)n1Nc1ccccc1)N(CCCNC(=O)OCc1ccccc1)C(=O)c1cccc(Cl)c1F` returned a melting point of 100 to 102 °C.

Compound `Cc1cccc2nc(Cn3cnc4c(N)ncnc43)n(-c3ccccc3C(C)C)c(=O)c12` yielded a melting point of 258 °C.

By melting point is commonly meant the temperature, or range, at which the solid turns liquid.
